Source: PubChem BioAssay AID248 (DTP/NCI, 2004)
Several values for one entry are separate records, joined by “and”; a condition that tells them apart may be missing. Equal entries are not always repeated. Toxic doses and inconclusive results are not listed.

Tested on: L1210 leukemia ip in BDF1 mice, survival T/C
Assay: NCI In Vivo Anticancer Drug Screen. Data for tumor model L1210 Leukemia (intraperitoneal) in B6D2F1 (BDF1) mice
Settings: higher = longer survival
Summary of the method: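 Transplanted-tumor mice were given test agent; controls received vehicle only. Survival readings from the two groups were divided (treated over control).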

[1] = endpoint: mean survival time, dose: 100.0 mg/kg/injection, schedule: Q01DX001 (ip), vehicle: saline with Tween-80
[2] = endpoint: mean survival time, dose: 100.0 mg/kg/injection, schedule: Q04DX003 (ip), vehicle: saline with Tween-80
[3] = endpoint: mean survival time, dose: 200.0 mg/kg/injection, schedule: Q04DX003 (ip), vehicle: saline with Tween-80
[4] = endpoint: mean survival time, dose: 100.0 mg/kg/injection, schedule: Q04DX002 (ip), vehicle: Klucel (hydroxypropylcellulose) (HPC)
[5] = endpoint: mean survival time, dose: 200.0 mg/kg/injection, schedule: Q04DX002 (ip), vehicle: Klucel (hydroxypropylcellulose) (HPC)
[6] = endpoint: mean survival time, dose: 400.0 mg/kg/injection, schedule: Q04DX002 (ip), vehicle: Klucel (hydroxypropylcellulose) (HPC)
[7] = endpoint: mean survival time, dose: 12.5 mg/kg/injection, schedule: Q01DX009 (ip), vehicle: Klucel (hydroxypropylcellulose) (HPC)
[8] = endpoint: mean survival time, dose: 25.0 mg/kg/injection, schedule: Q01DX009 (ip), vehicle: Klucel (hydroxypropylcellulose) (HPC)
[9] = endpoint: mean survival time, dose: 50.0 mg/kg/injection, schedule: Q01DX009 (ip), vehicle: Klucel (hydroxypropylcellulose) (HPC)
[10] = endpoint: mean survival time, dose: 100.0 mg/kg/injection, schedule: Q04DX003 (ip), vehicle: Klucel (hydroxypropylcellulose) (HPC)
[11] = endpoint: mean survival time, dose: 200.0 mg/kg/injection, schedule: Q04DX003 (ip), vehicle: Klucel (hydroxypropylcellulose) (HPC)
[12] = endpoint: mean survival time, dose: 400.0 mg/kg/injection, schedule: Q04DX003 (ip), vehicle: Klucel (hydroxypropylcellulose) (HPC)

Structure (SMILES): Cc1cc(C)c(NC(=O)c2cc(C(=O)O)c(C(=O)Nc3c(C)cc(C)cc3C)cc2C(=O)O)c(C)c1
- T/C (endpoint: mean survival time, dose: 50.0 mg/kg/injection, schedule: Q01DX009 (ip), vehicle: saline with Tween-80): 119 % of control and 91 % of control
- T/C [1]: 104 % of control
- T/C (endpoint: mean survival time, dose: 100.0 mg/kg/injection, schedule: Q04DX002 (ip), vehicle: saline with Tween-80): 104 % of control and 110 % of control
- T/C [2]: 107 % of control
- T/C (endpoint: mean survival time, dose: 200.0 mg/kg/injection, schedule: Q01DX001 (ip), vehicle: saline with Tween-80): 98 % of control
- T/C (endpoint: mean survival time, dose: 200.0 mg/kg/injection, schedule: Q04DX002 (ip), vehicle: saline with Tween-80): 94 % of control and 113 % of control
- T/C [3]: 100 % of control
- T/C (endpoint: mean survival time, dose: 400.0 mg/kg/injection, schedule: Q01DX001 (ip), vehicle: saline with Tween-80): 102 % of control
- T/C (endpoint: mean survival time, dose: 400.0 mg/kg/injection, schedule: Q01DX009 (ip), vehicle: saline with Tween-80): 87 % of control and 89 % of control
- T/C (endpoint: mean survival time, dose: 400.0 mg/kg/injection, schedule: Q04DX002 (ip), vehicle: saline with Tween-80): 100 % of control
- T/C (endpoint: mean survival time, dose: 400.0 mg/kg/injection, schedule: Q04DX003 (ip), vehicle: saline with Tween-80): 96 % of control

Structure (SMILES): NC(=O)Nc1ccccc1F
- T/C [4]: 106 % of control
- T/C [5]: 100 % of control
- T/C [6]: 100 % of control

Structure (SMILES): CNC(=O)Oc1ccc(/C=N/NC(=O)c2ccncc2)cc1OC
- T/C (endpoint: mean survival time, dose: 100.0 mg/kg/injection, schedule: Q01DX009 (ip), vehicle: Klucel (hydroxypropylcellulose) (HPC)): 97 % of control
- T/C (endpoint: mean survival time, dose: 200.0 mg/kg/injection, schedule: Q01DX009 (ip), vehicle: Klucel (hydroxypropylcellulose) (HPC)): 97 % of control

Structure (SMILES): O=C(CC(O)c1ccccc1)Nc1ccccn1 (stereo unspecified)
- T/C (endpoint: mean survival time, dose: 100.0 mg/kg/injection, schedule: Q01DX001 (ip), vehicle: saline): 98 % of control
- T/C (endpoint: mean survival time, dose: 200.0 mg/kg/injection, schedule: Q01DX001 (ip), vehicle: saline): 102 % of control
- T/C (endpoint: mean survival time, dose: 400.0 mg/kg/injection, schedule: Q01DX001 (ip), vehicle: saline): 93 % of control

Structure (SMILES): Cc1ccc2[nH]c(C)cc(=O)c2c1
- T/C (endpoint: mean survival time, dose: 2.5 mg/kg/injection, schedule: Q01DX009 (ip), vehicle: saline): 109 % of control
- T/C (endpoint: mean survival time, dose: 5.0 mg/kg/injection, schedule: Q01DX009 (ip), vehicle: saline): 95 % of control
- T/C (endpoint: mean survival time, dose: 10.0 mg/kg/injection, schedule: Q01DX001 (ip), vehicle: saline): 104 % of control
- T/C (endpoint: mean survival time, dose: 10.0 mg/kg/injection, schedule: Q01DX009 (ip), vehicle: saline): 106 % of control
- T/C (endpoint: mean survival time, dose: 20.0 mg/kg/injection, schedule: Q01DX001 (ip), vehicle: saline): 101 % of control
- T/C (endpoint: mean survival time, dose: 40.0 mg/kg/injection, schedule: Q01DX001 (ip), vehicle: saline): 98 % of control

Structure (SMILES): O=C(O)c1ccccc1N=Cc1ccccc1O.[Co]
- T/C (endpoint: mean survival time, dose: 100.0 mg/kg/injection, schedule: Q01DX001 (ip), vehicle: other): 102 % of control
- T/C (endpoint: mean survival time, dose: 200.0 mg/kg/injection, schedule: Q01DX001 (ip), vehicle: other): 112 % of control

Structure (SMILES): O=C(COc1ccc(Cl)c(Cl)c1)NCc1ccc[n+](Cc2ccc(Cl)cc2S(=O)(=O)F)c1
- T/C [2]: 100 % of control
- T/C [3]: 106 % of control

Structure (SMILES): COC(=O)c1ccc(N=NN(C)C)cc1
- T/C (endpoint: median survival time, dose: 65.0 mg/kg/injection, schedule: Q01DX001 (ip), vehicle: steriod suspending solution): 100 % of control
- T/C (endpoint: median survival time, dose: 108.0 mg/kg/injection, schedule: Q01DX001 (ip), vehicle: steriod suspending solution): 110 % of control
- T/C (endpoint: median survival time, dose: 108.0 mg/kg/injection, schedule: Q01DX009 (ip), vehicle: steriod suspending solution): 100 % of control
- T/C (endpoint: median survival time, dose: 180.0 mg/kg/injection, schedule: Q01DX001 (ip), vehicle: steriod suspending solution): 110 % of control
- T/C (endpoint: median survival time, dose: 180.0 mg/kg/injection, schedule: Q04DX003 (ip), vehicle: steriod suspending solution): 150 % of control

Structure (SMILES): COc1ccc(Nc2cc(N)nc(N)n2)cc1
- T/C (endpoint: mean survival time, dose: 25.0 mg/kg/injection, schedule: Q01DX Z (ip), vehicle: methylcellulose (MC)): 93 % of control
- T/C (endpoint: mean survival time, dose: 50.0 mg/kg/injection, schedule: Q01DX Z (ip), vehicle: methylcellulose (MC)): 87 % of control

Structure (SMILES): O=C(Nc1ccc(CCO)cc1)Nc1cc([N+](=O)[O-])ccc1Cl
- T/C [7]: 102 % of control
- T/C [8]: 104 % of control
- T/C [9]: 91 % of control

Structure (SMILES): CN=C(NC)c1ccc(NC(=O)c2cccc(C(=O)Nc3ccc(C(=NC)NC)cc3)c2)cc1
- T/C (endpoint: mean survival time, dose: 15.0 mg/kg/injection, schedule: Q01DX Z (ip), vehicle: saline): 110 % of control
- T/C (endpoint: mean survival time, dose: 30.0 mg/kg/injection, schedule: Q01DX Z (ip), vehicle: saline): 119 % of control
- T/C (endpoint: mean survival time, dose: 60.0 mg/kg/injection, schedule: Q01DX Z (ip), vehicle: saline): 86 % of control

Structure (SMILES): CC(=O)COc1cccc(Cl)c1
- T/C [10]: 104 % of control
- T/C [11]: 98 % of control
- T/C [12]: 97 % of control

Structure (SMILES): Oc1c(Br)cc(Br)cc1C=Nc1ccccc1.Oc1c(Br)cc(Br)cc1C=Nc1ccccc1.[Co]
- T/C (endpoint: mean survival time, dose: 100.0 mg/kg/injection, schedule: Q04DX003 (ip), vehicle: saline): 92 % of control
- T/C (endpoint: mean survival time, dose: 200.0 mg/kg/injection, schedule: Q04DX003 (ip), vehicle: saline): 98 % of control
- T/C (endpoint: mean survival time, dose: 400.0 mg/kg/injection, schedule: Q04DX003 (ip), vehicle: saline): 98 % of control

Structure (SMILES): CS(=O)(=O)OCCN(CCOS(C)(=O)=O)c1ccc(C=O)cc1
- T/C (endpoint: mean survival time, dose: 3.8 mg/kg/injection, schedule: Q01DX009 (ip), vehicle: saline): 122 % of control
- T/C (endpoint: mean survival time, dose: 6.0 mg/kg/injection, schedule: Q01DX001 (ip), vehicle: saline): 112 % of control
- T/C (endpoint: mean survival time, dose: 7.5 mg/kg/injection, schedule: Q01DX009 (ip), vehicle: saline): 113 % of control
- T/C (endpoint: mean survival time, dose: 12.0 mg/kg/injection, schedule: Q01DX001 (ip), vehicle: saline): 118 % of control
- T/C (endpoint: mean survival time, dose: 15.0 mg/kg/injection, schedule: Q01DX009 (ip), vehicle: saline): 122 % of control
- T/C (endpoint: mean survival time, dose: 25.0 mg/kg/injection, schedule: Q01DX001 (ip), vehicle: saline): 120 % of control
- T/C (endpoint: mean survival time, dose: 30.0 mg/kg/injection, schedule: Q01DX009 (ip), vehicle: saline): 116 % of control
- T/C (endpoint: mean survival time, dose: 60.0 mg/kg/injection, schedule: Q01DX009 (ip), vehicle: saline): 116 % of control and 118 % of control
- T/C (endpoint: mean survival time, dose: 75.0 mg/kg/injection, schedule: Q01DX001 (ip), vehicle: saline): 104 % of control
- T/C (endpoint: mean survival time, dose: 99.0 mg/kg/injection, schedule: Q01DX009 (ip), vehicle: saline): 110 % of control

Structure (SMILES): CCCCNc1ncnc2c1ncn2C1OC(CO)C(O)C1O (stereo unspecified)
- T/C (endpoint: mean survival time, dose: 50.0 mg/kg/injection, schedule: Q01DX005 (ip), vehicle: saline): 105 % of control

Structure (SMILES): O=P(Cc1ccccc1)(c1ccccc1)c1ccccc1
- T/C [10]: 90 % of control
- T/C [11]: 90 % of control
- T/C [12]: 94 % of control

Structure (SMILES): Nc1ncc(-c2ccc(Br)cc2)s1
- T/C (endpoint: mean survival time, dose: 12.5 mg/kg/injection, schedule: Q01DX005 (ip), vehicle: Klucel (hydroxypropylcellulose) (HPC)): 100 % of control
- T/C [7]: 105 % of control
- T/C (endpoint: mean survival time, dose: 25.0 mg/kg/injection, schedule: Q01DX005 (ip), vehicle: Klucel (hydroxypropylcellulose) (HPC)): 107 % of control
- T/C [8]: 97 % of control
- T/C (endpoint: mean survival time, dose: 50.0 mg/kg/injection, schedule: Q01DX005 (ip), vehicle: Klucel (hydroxypropylcellulose) (HPC)): 91 % of control
- T/C [9]: 97 % of control
- T/C (endpoint: mean survival time, dose: 75.0 mg/kg/injection, schedule: Q01DX009 (ip), vehicle: Klucel (hydroxypropylcellulose) (HPC)): 97 % of control
- T/C [4]: 102 % of control
- T/C (endpoint: mean survival time, dose: 115.0 mg/kg/injection, schedule: Q01DX009 (ip), vehicle: Klucel (hydroxypropylcellulose) (HPC)): 92 % of control
- T/C (endpoint: mean survival time, dose: 170.0 mg/kg/injection, schedule: Q01DX009 (ip), vehicle: Klucel (hydroxypropylcellulose) (HPC)): 116 % of control
- T/C [5]: 102 % of control
- T/C [6]: 88 % of control

Structure (SMILES): NNC(=O)C1CCN1C(c1ccccc1)c1ccccc1 (stereo unspecified)
- T/C (endpoint: mean survival time, dose: 25.0 mg/kg/injection, schedule: Q01DX001 (ip), vehicle: saline with Tween-80): 101 % of control
- T/C (endpoint: mean survival time, dose: 50.0 mg/kg/injection, schedule: Q01DX001 (ip), vehicle: saline with Tween-80): 101 % of control
- T/C [1]: 97 % of control

Structure (SMILES): CN(C)c1ccc(CC2CCOC2=O)cc1 (stereo unspecified)
- T/C (endpoint: mean survival time, dose: 50.0 mg/kg/injection, schedule: Q01DX001 (ip), vehicle: carboxymethylcellulose (CMC)): 102 % of control
- T/C (endpoint: mean survival time, dose: 100.0 mg/kg/injection, schedule: Q01DX001 (ip), vehicle: carboxymethylcellulose (CMC)): 96 % of control
- T/C (endpoint: mean survival time, dose: 200.0 mg/kg/injection, schedule: Q01DX001 (ip), vehicle: carboxymethylcellulose (CMC)): 96 % of control
- T/C (endpoint: mean survival time, dose: 400.0 mg/kg/injection, schedule: Q01DX001 (ip), vehicle: carboxymethylcellulose (CMC)): 100 % of control
